Experimental findings from patent US20040024024A1, “Aromatic sulfone hydroxamates and their use as protease inhibitors” (priority 2001, published 2004) are described below.

What all share (assay): In vitro MMP inhibition, IC50 determination (fluorogenic substrate I)
Common to all, as to type: biochemical

Assay [1] addresses T1, Human recombinant MMP-1 (Homo sapiens, UniProt P03956).
T1 construct: made in house; host or cells: MMP-1-transfected HT-1080 cells (spent media)
T1 sequence (P03956 100-469): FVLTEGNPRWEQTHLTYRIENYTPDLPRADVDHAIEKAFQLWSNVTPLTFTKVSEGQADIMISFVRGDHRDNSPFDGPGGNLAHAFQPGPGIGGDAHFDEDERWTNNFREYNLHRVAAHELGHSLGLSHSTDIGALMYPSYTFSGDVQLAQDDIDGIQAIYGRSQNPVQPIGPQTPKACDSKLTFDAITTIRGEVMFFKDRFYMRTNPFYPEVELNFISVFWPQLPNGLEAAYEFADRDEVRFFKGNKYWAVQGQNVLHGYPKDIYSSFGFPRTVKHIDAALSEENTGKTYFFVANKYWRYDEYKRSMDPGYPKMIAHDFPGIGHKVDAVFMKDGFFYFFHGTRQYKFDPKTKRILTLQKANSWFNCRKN
The method, boiled down:
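Inhibitor dilutions were made in 100 mM Tris-HCl/100 mM NaCl/10 mM CaCl2 buffer, pH 7.5, and incubated at room temperature with activated proenzyme (from transfected HT-1080 media; APMA or trypsin) and 4 μM quenched methoxycoumarin peptide substrate. Loss of 415 nm fluorescence (328 nm excitation) against concentration gave IC50.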

The target of assay [2] is T2, Human recombinant MMP-2 (Homo sapiens, UniProt P08253).
T2 construct: made in house; host or cells: MMP-2-transfected p2AHT2 cells
T2 sequence (P08253 110-660): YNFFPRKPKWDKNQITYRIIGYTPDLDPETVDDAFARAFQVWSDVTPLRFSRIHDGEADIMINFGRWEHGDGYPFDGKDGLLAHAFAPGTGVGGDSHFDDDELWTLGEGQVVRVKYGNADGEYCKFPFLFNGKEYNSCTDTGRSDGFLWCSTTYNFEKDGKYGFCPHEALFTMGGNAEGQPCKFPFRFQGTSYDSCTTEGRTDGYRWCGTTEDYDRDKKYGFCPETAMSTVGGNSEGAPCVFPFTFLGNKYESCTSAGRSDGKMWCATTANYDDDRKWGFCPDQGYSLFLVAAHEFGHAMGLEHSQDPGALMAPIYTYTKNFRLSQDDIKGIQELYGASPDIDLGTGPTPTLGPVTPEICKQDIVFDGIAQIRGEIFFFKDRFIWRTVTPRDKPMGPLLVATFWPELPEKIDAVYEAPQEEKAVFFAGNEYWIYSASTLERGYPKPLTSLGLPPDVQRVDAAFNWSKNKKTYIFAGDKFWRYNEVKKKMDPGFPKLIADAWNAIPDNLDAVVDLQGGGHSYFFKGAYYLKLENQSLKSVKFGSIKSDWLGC
The method, boiled down:
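IC50 was derived from the concentration-dependent fall in fluorescence (ex 328, em 415 nm) on Gly-Leu cleavage of 4 μM MCA/Dpa-quenched substrate I. Assays ran at room temperature in pH 7.5 Tris/NaCl/CaCl2/Brij buffer with MMP-2 activated by trypsin or APMA; inhibitors were diluted from 1% DMSO stocks.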

For assay [3], the target named is T3, Human recombinant MMP-9 (Homo sapiens, UniProt P14780).
T3 construct: made in house; host or cells: MMP-9-transfected HT1080 cells (spent media)
T3 sequence (P14780 107-707 limits assumed): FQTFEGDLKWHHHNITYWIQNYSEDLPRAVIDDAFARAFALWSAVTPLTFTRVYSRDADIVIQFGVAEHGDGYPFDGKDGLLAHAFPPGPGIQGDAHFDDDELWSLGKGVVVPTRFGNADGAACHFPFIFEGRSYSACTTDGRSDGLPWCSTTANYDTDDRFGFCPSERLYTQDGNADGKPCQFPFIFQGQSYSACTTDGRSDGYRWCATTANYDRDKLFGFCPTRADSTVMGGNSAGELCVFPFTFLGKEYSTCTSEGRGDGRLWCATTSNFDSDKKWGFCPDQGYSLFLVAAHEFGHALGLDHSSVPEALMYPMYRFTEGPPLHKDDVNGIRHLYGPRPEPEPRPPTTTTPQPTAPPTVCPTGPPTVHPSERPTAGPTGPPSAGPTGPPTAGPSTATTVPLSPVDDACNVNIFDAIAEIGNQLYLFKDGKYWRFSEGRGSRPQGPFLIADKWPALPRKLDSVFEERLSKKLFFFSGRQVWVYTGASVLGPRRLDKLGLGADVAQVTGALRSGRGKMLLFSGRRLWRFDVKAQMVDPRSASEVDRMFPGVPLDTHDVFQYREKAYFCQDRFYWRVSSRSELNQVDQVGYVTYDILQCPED
The essentials: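 Reduction in fluorescence (328 nm excitation, 415 nm emission) from cleavage of 4 μM quenched peptide substrate I, measured at room temperature against inhibitor concentration, gave IC50. Enzyme: trypsin- or APMA-activated MMP-9 purified from transfected HT1080 medium; buffer 100 mM Tris, 100 mM NaCl, 10 mM CaCl2, pH 7.5.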

For assay [4], the target named is T4, Human recombinant MMP-14 (Homo sapiens, UniProt P50281).
T4 construct: The catalytic domain enzyme was expressed in E. coli inclusion bodies, solubilized in urea; made in house
The method, boiled down:
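IC50 came from reduced fluorescence (ex 328 nm, em 415 nm) as inhibitor concentration rose, with 4 μM substrate I cleaved at Gly-Leu. Room-temperature incubation in pH 7.5 Tris buffer with 10 mM CaCl2; the E. coli-expressed, refolded MMP-14 catalytic domain was activated with trypsin or APMA.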

Assay [5] has as its target T5, Human recombinant MMP-13 (Homo sapiens, UniProt P45452).
T5 construct: made in house; host or cells: baculovirus / insect cells
The essentials: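 Fluorescence at 415 nm (excitation 328 nm) reports Gly-Leu cleavage of 4 μM quenched methoxycoumarin peptide substrate I. Human recombinant MMP-13, activated by trypsin or APMA, was incubated at room temperature with varied inhibitor concentrations in pH 7.5 Tris/NaCl/CaCl2 buffer; IC50 derived from reduced fluorescence.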

The mark [6] stands for this setting: value outside parentheses (Ki in parenthesis).
The mark [7] stands for this setting: substrate (I) 4 μM, room temperature, values not in parenthesis.

pIC50: −log10 of the molar value.

For `CCCCOCCCNc1ccc(S(=O)(=O)C2(C(=O)NO)CCOCC2)cc1` [Example 460], the pIC50 in assay [1] (setting [6]) was less than 5.00; in assay [2] (setting [6]), 6.84; in assay [3] (setting [6]), 6.15; in assay [4] (setting [6]), less than 5.00; in assay [5] (setting [6]), 7.60.
On to `COC(=O)c1cccc(OCCOc2ccc(S(=O)(=O)C3(C(=O)NO)CCOCC3)cc2)c1` [Example 668], for which the pIC50 in assay [1] (value outside parentheses) is 5.12; in assay [2] (value outside parentheses), 7.00; in assay [3] (value outside parentheses), 6.54; in assay [4] (value outside parentheses), 5.68; in assay [5] (value outside parentheses) it was 8.82.
For `O=C(NO)C1(S(=O)(=O)c2ccc(OCCCc3nc(-c4ccc(Cl)cc4)no3)cc2)CCOCC1` [Example 243], the negative logarithm of the IC50 (pIC50) is 5.03 in assay [1] (value outside parenthesis); 7.31 in assay [2] (value outside parenthesis); 5.68 in assay [3] (value outside parenthesis); less than 5.00 in assay [4] (value outside parenthesis); 9.30 in assay [5] (value outside parenthesis).
Turning to `O=C(CCCCOc1ccc(S(=O)(=O)C2(C(=O)NO)CCOCC2)cc1)c1cccc(-c2ccccc2)c1` [Example 325], the pIC50 is less than 5.00 in assay [1] (setting [6]); 7.96 in assay [2] (setting [6]); 5.39 in assay [3] (setting [6]); less than 5.00 in assay [4] (setting [6]); 9.30 in assay [5] (setting [6]).
`COC(=O)c1ccc(OCCOc2ccc(S(=O)(=O)C3(C(=O)NO)CCOCC3)cc2)cc1` [Example 651]: the negative-log IC50 (pIC50) in assay [1] (value outside parentheses) was less than 5.00; in assay [2] (value outside parentheses) it was 7.73; in assay [3] (value outside parentheses) it was 6.89; in assay [4] (value outside parentheses), 6.19; in assay [5] (value outside parentheses), 8.95.
In the case of `COc1ccc(C(=O)C(C)CCOc2ccc(S(=O)(=O)C3(C(=O)NO)CCOCC3)cc2)cc1` (centres unmarked) [Example 306], the negative logarithm of the IC50 (pIC50) in assay [1] (setting [6]) was less than 5.00; in assay [2] (setting [6]), 7.03; in assay [3] (setting [6]), 6.73; in assay [4] (setting [6]), less than 5.00; in assay [5] (setting [6]), 8.77.
For `O=C(NO)C1(S(=O)(=O)c2ccc(OCCSc3nc4ccccc4s3)cc2)CCOCC1` [Example 341], the pIC50 was less than 5.00 in assay [1] (setting [6]); 7.77 in assay [2] (setting [6]); 5.95 in assay [3] (setting [6]); 5.19 in assay [4] (setting [6]); 9.30 in assay [5] (setting [6]).
For `COc1cccc(-c2nnc(CCCOc3ccc(S(=O)(=O)C4(C(=O)NO)CCOCC4)cc3)o2)c1` [Example 280], the negative logarithm of the IC50 (pIC50) in assay [1] (value outside parenthesis) was less than 5.00; in assay [2] (value outside parenthesis), 6.77; in assay [3] (value outside parenthesis), 5.69; in assay [4] (value outside parenthesis), less than 5.00; in assay [5] (value outside parenthesis) it was 8.82.
Turning to `O=C(NO)C1(S(=O)(=O)c2ccc(OCCOc3cccc(F)c3)cc2)CCOCC1` [Example 669], the pIC50 in assay [1] (value outside parentheses) is less than 5.00; in assay [2] (value outside parentheses), 7.71; in assay [3] (value outside parentheses), 7.41; in assay [4] (value outside parentheses), 5.57; in assay [5] (value outside parentheses) it was 8.14.
Turning to `CC(C)(C)c1ccc(-c2nnc(CCCOc3ccc(S(=O)(=O)C4(C(=O)NO)CCOCC4)cc3)o2)cc1` [Example 278], the pIC50 was less than 5.00 in assay [1] (value outside parenthesis); 6.68 in assay [2] (value outside parenthesis); 6.31 in assay [3] (value outside parenthesis); less than 5.00 in assay [4] (value outside parenthesis); 8.43 in assay [5] (value outside parenthesis).
Consider `COc1ccc(CCCOc2ccc(S(=O)(=O)C3(C(=O)NO)CCOCC3)cc2)cc1` [Example 465], for which the pIC50 in assay [1] (setting [6]) was less than 5.00; in assay [2] (setting [6]), 8.40; in assay [3] (setting [6]) it was 6.74; in assay [4] (setting [6]), 5.74; in assay [5] (setting [6]), 9.52.
On to `Cc1cccc(-c2nnc(CCCOc3ccc(S(=O)(=O)C4(C(=O)NO)CCOCC4)cc3)o2)c1` [Example 258], for which the pIC50 in assay [1] (value outside parenthesis) is less than 5.00; in assay [2] (value outside parenthesis), 6.76; in assay [3] (value outside parenthesis), 5.71; in assay [4] (value outside parenthesis) it was less than 5.00; in assay [5] (value outside parenthesis) it was 8.77.
As for `COc1ccc(CCCCc2ccc(S(=O)(=O)C3(C(=O)NO)CCOCC3)cc2)cc1` [Example 256], the pIC50 in assay [1] (value outside parenthesis) is less than 5.00; in assay [2] (value outside parenthesis) it was 10.00; in assay [3] (value outside parenthesis), 7.42; in assay [4] (value outside parenthesis), less than 5.00; in assay [5] (value outside parenthesis), more than 10.00.
Consider `COCCN1CCC(C(=O)NO)(S(=O)(=O)c2ccc(OCCCNC(=O)c3ccc(OC(C)C)c(C)c3)cc2)CC1` [Example 230], for which the pIC50 in assay [1] (value outside parenthesis) was less than 5.00; in assay [2] (value outside parenthesis), 6.26; in assay [3] (value outside parenthesis), 5.99; in assay [4] (value outside parenthesis), less than 5.00; in assay [5] (value outside parenthesis) it was 8.96.
For the compound `CN(CCc1ccccc1)S(=O)(=O)CCCOc1ccc(S(=O)(=O)C2(C(=O)NO)CCOCC2)cc1` [Example 292], the pIC50 in assay [1] (setting [6]) was 6.01; in assay [2] (setting [6]), 7.84; in assay [3] (setting [6]) it was 6.79; in assay [4] (setting [6]) it was less than 5.00; in assay [5] (setting [6]), 8.62.
In the same order, the values of `O=C(NO)C1(S(=O)(=O)c2ccc(NCCCCc3ccccc3)cc2)CCOCC1` [Example 462] are less than 5.00, 7.96, 7.74, 5.19 and 8.15.
Take `O=C1c2ccccc2CN1CCCOc1ccc(S(=O)(=O)C2(C(=O)NO)CCOCC2)cc1` [Example 22, 4-[[4-[3-(1,3-dihydro-1-oxo-2H-isoindol-2-yl)propoxy]phenyl]sulfonyl]tetrahydro-N-hydroxy-2H-pyran-4-carboxamide]: the pIC50 in assay [1] (setting [7]) is less than 5.00; in assay [2] (setting [7]) it was 6.00; in assay [3] (setting [7]), less than 5.00; in assay [4] (setting [7]) it was less than 5.00; in assay [5] (setting [7]), 8.31.
`O=C(NO)C1(S(=O)(=O)c2ccc(OCCOCc3cccc(F)c3)cc2)CCOCC1` [Example 663]: the pIC50 in assay [1] (value outside parentheses) was less than 5.00; in assay [2] (value outside parentheses), 7.60; in assay [3] (value outside parentheses) it was 7.30; in assay [4] (value outside parentheses), 5.48; in assay [5] (value outside parentheses) it was 8.44.
In the same order, the values of `O=C(NO)C1(S(=O)(=O)c2ccc(OCCCn3nnc(-c4ccc(C(F)(F)F)cc4)n3)cc2)CCN(CC(F)(F)F)CC1` [Example 657] are less than 5.00, 6.50, 6.42, 5.46 and 5.22.
In the same order, the values of `O=C(Cc1ccsc1)NCCOc1ccc(S(=O)(=O)C2(C(=O)NO)CCOCC2)cc1` [Example 601] are 5.31, 8.72, 7.37, 5.69 and 8.89.
As for `COCCN1CCC(C(=O)NO)(S(=O)(=O)c2ccc(OCCCCC(=O)c3ccc(OC)cc3)cc2)CC1` [Example 245], the pIC50 is less than 5.00 in assay [1] (value outside parenthesis); 8.07 in assay [2] (value outside parenthesis); 7.21 in assay [3] (value outside parenthesis); less than 5.00 in assay [4] (value outside parenthesis); 9.70 in assay [5] (value outside parenthesis).
In the case of `COC(C)CCOc1ccc(S(=O)(=O)C2(C(=O)NO)CCOCC2)cc1` (centres unmarked) [Example 472], the pIC50 was less than 5.00 in assay [1] (setting [6]); 8.52 in assay [2] (setting [6]); 7.40 in assay [3] (setting [6]); 6.40 in assay [4] (setting [6]); 8.22 in assay [5] (setting [6]).

For orientation: pIC50 means the IC50 on a negative log10 scale, so that one unit is a factor of ten.
